{"source": "patent US7691567B2", "about": "“Methods and compositions relating to fortilin, an anti-apoptotic molecule, and modulators of fortilin” (Board of Regents, the University of Texas System, priority 2000, dated 2010)", "key": {"caspase 3-like activity": {"tested_on": "caspase 3-like activity", "assay": "Assay of caspase 3-like activity in U2OS stable transfectants (Z-DEVD-AFC)", "assay_type": "cell-based", "protocol": "Assay of caspase 3-like activity. Approximately 2×10^6 U2OS stable transfectants, either expressing Fortilin (U2OS.F) or harboring empty expression vector (U2OS.E), both of which have been characterized above, were challenged either with dimethyl sulfoxide (DMSO) (vehicle) or with etoposide at a final concentration of 10 μg/mL for 48 hours. Caspase 3-like activity was then determined as previously described (Mannick et al., 1999). In brief, cytosolic proteins were extracted in hypotonic cell lysis buffer (25 mM HEPES, pH 7.5, 5 mM MgCl2, 5 mM EDTA, 5 mM dithiothreitol, 0.05% phenylmethylsulfonyl fluoride [PMSF]; all from Sigma) by three cycles of freezing and thawing. The protein concentration of samples was determined by using a BioRad Bradford protein assay kit (BioRad). Ten micrograms of cytosolic extracts were added to caspase assay buffer (312.5 mM HEPES, pH 7.5, 31.25% sucrose, 0.3125% CHAPS) with Z-DEVD-AFC as substrates (CalBiochem, San Diego, Calif.). Release of 7-amido-4-(trifluoromethyl)coumarin (AFC) was quantified, after 2 hours of incubation at 37° C. (or, in the case of time course experiment, every 10 minutes), using a Fluoroskan system (Thermo-Labsystems, Helsinki, Finland) set to an excitation value of 355 nm and emission value of 525 nm. The results were expressed as relative fluorescence unit (R.F.U.) per microgram of protein."}, "U2OS cells [1]": {"tested_on": "U2OS cells", "assay": "Bax-mediated apoptosis in transfected U2OS cells (apoptotic index)", "assay_type": "cell-based", "details": "for prevention of Bax mediated apoptosis (apoptotic index): U2OS cells cotransfected with Bax-pcDNA3, thirty hours after transfection", "protocol": "The amount of LacZ-pFLAG was 1/10 to 1/20 (w/w) of total amounts of DNA added. Thirty hours after the transfection, cells were stained with X-gal. Blue cells represented cells expressing Bax, β-galactosidase and indicated proteins in question. At least 300 blue cells were counted and evaluated for plasma membrane morphology. Rounded cells were counted as apoptotic. Apoptotic index was calculated as the number of blue apoptotic cells divided by the number of total blue cells counted, expressed in percentage. Without the expression of Bax, there was a modest amount of background cell death noted (Lane 6). On the other hand, the presence of Bax caused 2 holds increase in the number of apoptotic cells (Lane 5). […] Taken together, the ability of Fortilin to inhibit Bax mediated apoptosis is mediated by its interaction with MCL1."}, "H1299 cells": {"tested_on": "H1299 cells", "assay": "p53-mediated apoptosis in transfected H1299 cells (apoptotic index)", "assay_type": "cell-based", "details": "overexpression, thirty hours after transfection", "protocol": "Because wild-type p53 can induce apoptosis, the ability of Fortilin to prevent or inhibit p53-mediated apoptosis was examined. H1299 cells were transfected with indicated combinations of mammalian expression constructs. Thirty hours after the transfection, cells were fixed and stained for beta-galactosidase activities. Cells that were round in shape with significant membrane irregularity were counted as apoptotic (FIG. 5). Apoptotic index was calculated as (Blue cells with apoptotic plasma membrane morphology)/(Total blue cells counted)×100."}, "HeLa cells": {"tested_on": "HeLa cells", "assay": "Cell death assay: etoposide-induced apoptosis in transfected HeLa cells (apoptotic index)", "assay_type": "cell-based", "details": "HeLa cells overexpressing FLAG-tagged protein; 5 μg/mL etoposide 12 hours", "protocol": "Cell death assay: The experiment was performed in duplicate and repeated at least three times. A total of […] HeLa cells were seeded in each well of a 4-well Lab-Teck™ chamber slides (Nalge Nunc International), and transfected with pFLAG containing Fortilin or other control cDNAs, using FuGENE6 (Roche). Twenty-four hours after the transfection, the cells were challenged by 5 μg/mL etoposide for 12 hours. Cells were stained for the FLAG-epitope using anti-FLAG antibody (M2, Sigma Co) and anti-mouse IgG conjugated to Rhodamine Red X (Jackson ImmunoResearch Laboratories). The nuclei were stained with DAPI (4,6-Diamidino-2-phenylindole, Sigma Co). Cells were then examined under a Zeiss AXIOSKOP fluorescent microscope (Carl Zeiss Ltd.), using appropriate filter sets. Cells that emitted red fluorescence were evaluated for their nuclear morphology. Condensed or fragmented nuclei were counted as apoptotic. An apoptotic index was then calculated as the number of red cells with apoptotic nuclear morphology divided by the number of total red cells counted and multiplied by 100.\nStatistical analysis: For the analysis of statistical significance of apoptotic indices among cells transfected with different plasmids, Dunnett's T tests were performed. In all cases, the confidence intervals were 0.95 with the alpha value of 0.05. For the statistical evaluation of the significant linear trend between the amount of plasmids used for the transfection and apoptotic indices, ANOVA (Analysis of Variance) regression analysis was employed. […] For the analysis of statistical significance of possible correlation between the degree of malignancy and the indices of Fortilin immunoreactivity, Dunnett's multiple range tests were performed."}, "[2]": {"tested_on": "p53 transactivation of Bax gene", "assay": "p53 transactivation of Bax gene, p-Bax-RE-Luc luciferase reporter in H1299 cells", "assay_type": "cell-based", "details": "twenty-four hours after transfection", "protocol": "The ability of Fortilin to interfere with transactivation of the Bax gene by p53 was investigated. Non-small cell lung cancer cell line H1299 cells were transfected with p53-pcDNA3, LacZ-pFLAG, p-Bax-RE-Luc (a plasmid encoding the Luciferase gene under the control of the Bax responsive element) and pFLAG vector encoding Bcl-2, MCL1, Fortilin or truncated Fortilin as indicated in FIG. 6. Twenty-four hours after the transfection, luciferase activity was measured and normalized to the β-galactosidase activity, the latter representing transfection efficiency.\nNext, studies were conducted to determine whether the inhibition was dosage dependent. H1299 cells were transfected with p53-pcDNA3, LacZ-pFLAG, p-Bax-RE-Luc and various amount of Fortilin-pFLAG. The total amount of DNA added was adjusted by the addition of empty pFLAG vector. Twenty-four hours after the transfection, luciferase activity was measured and normalized to the β-galactosidase activity."}, "U2OS cells [3]": {"tested_on": "U2OS cells", "details": "U2OS stable transfectants of HA-tagged Fortilin or deletion mutants, 5 μg/mL etoposide 48 hours", "excerpt": "Generation and characterization of U2OS cells stably expressing Fortilin. U2OS cells were transfected with empty pcDNA6, a mammalian expression vector containing a blasticidine resistance gene (Invitrogen, Carlsbad, Calif.), or with pcDNA6 vector encoding wild-type Fortilin, by using FuGENE6 (Roche Molecular Biochemicals) according to the manufacturer's instructions. Transfected cells were selected for approximately 3 weeks and characterized by Western blot analysis. For the cytotoxicity assay, U2OS cells stably expressing wild-type Fortilin (U2OS.F) and U2OS cells stably harboring empty pcDNA6 (U2OS.E) were seeded in a 96 well plate in quadruplicate. For the investigation of dose response, cells were challenged with various concentrations of etoposide (0-20 μg/mL) for 48 hours. For the time course study, cells were challenged with 5 μg/mL of etoposide and harvested after various incubation periods (0-96 hours). In both cases, the cell media were assayed for the lactate dehydrogenase (LDH) activity released from the cytosol of damaged cells, using a cytotoxicity detection kit (Roche Molecular Biochemicals) according to the manufacturer's instructions. The cytotoxicity index was calculated as follows: (LDH activity in the media−background LDH activity)÷(LDH activity in the medium of cells lysed by 1% Triton X-100−background LDH activity)×100.\nCell death assay. U2OS cells stably expressing Fortilin or its mutants were seeded in 96-well plates in triplicate. Cells were then challenged with 5 μg/mL of etoposide (Sigma) for 48 hours. Then the cell media were assayed for the lactate dehydrogenase (LDH) activity released from the cytosol of damaged cells, using a Cytotoxicity Detection Kit (Roche Molecular Biochemicals), according to the manufacturer's instructions. The cytotoxicity index was calculated as follows: (LDH activity in the media−background LDH activity)/(LDH activity in the medium of the cells lysed by 1% Triton X-100−background LDH activity)×100.\nStatistical analysis. For analysis of the statistical significance of differences in cytotoxicity indices among cells stably transfected with Fortilin, its mutants or control plasmids, Student's t-test was performed using a commercial software (Minitab Inc., State College, Pa.). In all cases, a P-value less than 0.05 was considered to be statistically significant."}}, "note": "“Also recorded” adds a separate entry of the source. Read-outs that look alike come from different tables or passages of the source."}
{"molecule": "COc1cc([C@@H]2c3cc4c(cc3[C@@H](O[C@@H]3O[C@@H]5CO[C@@H](C)O[C@H]5[C@H](O)[C@H]3O)[C@H]3COC(=O)[C@H]23)OCO4)cc(OC)c1O", "note": "[etoposide, reference compound]", "values": [{"measurement": "caspase-3-like activity index", "setting": "caspase 3-like activity; control U2OS.E cells (empty vector), etoposide 10 μg/mL 48 hours", "result": "1488.1±58.7", "unit": "R.F.U./μg protein"}, {"measurement": "increase in caspase-3-like activity", "setting": "caspase 3-like activity; control U2OS.E cells, etoposide challenge vs no etoposide", "result": 9.4, "unit": "fold"}]}
{"molecule": "Bax: pro-apoptotic protein expressed from Bax-pcDNA3 to induce apoptosis [reference compound]", "values": [{"measurement": "increase in the number of apoptotic cells", "setting": "U2OS cells [1]; U2OS cells, Bax expression versus without Bax", "result": 2, "unit": "holds"}]}
{"molecule": "Bcl-2: anti-apoptotic protein overexpressed as comparator [reference compound]", "values": [{"measurement": "suppression of p53 induced apoptosis (apoptotic index)", "setting": "H1299 cells", "result": "statistically significant (p<0.001) suppression of p53-induced apoptosis; also recorded: statistically significant (p<0.001) suppression of p53 induced apoptosis"}]}
{"molecule": "Bcl-xL: a Bcl-2 family protein, overexpressed as anti-apoptotic comparator", "values": [{"measurement": "prevention of Etoposide-induced apoptosis (apoptotic index)", "setting": "HeLa cells", "result": "prevented HeLa cells from undergoing Etoposide-induced apoptosis in a statistically significant fashion"}]}
{"molecule": "MCL1: Myeloid Cell Leukemia 1, a Bcl-2 homologue, anti-apoptotic protein [reference compound]", "values": [{"measurement": "prevention of Etoposide-induced apoptosis (apoptotic index)", "setting": "HeLa cells", "result": "prevented HeLa cells from undergoing Etoposide-induced apoptosis in a statistically significant fashion"}, {"measurement": "suppression of p53 induced apoptosis (apoptotic index)", "setting": "H1299 cells", "result": "statistically significant (p<0.001) suppression of p53-induced apoptosis; also recorded: statistically significant (p<0.001) suppression of p53 induced apoptosis"}, {"measurement": "inhibition of p53 transactivation of Bax gene (luciferase normalized to β-galactosidase)", "setting": "[2]", "result": "inhibited p53 transactivation of the Bax gene"}, {"measurement": "prevention of Bax mediated apoptosis (apoptotic index)", "setting": "U2OS cells [1]", "result": "prevented cells from undergoing Bax mediated apoptosis"}]}
{"molecule": "FortilinΔ46-172: Fortilin deletion mutant that lacks 26% of wild type Fortilin (protein, left off: small tags and cut ends, Fortilin deletion mutant that lacks 26% of wild type Fortilin) SLIGGNASAEGPEGEGTESTVITGVDIVMNHHLQETSFTKEAYKKYIKDYMKSIKGKLEEQRPERVKPFMTGAAEQIKHILANFKNYQFFIGENMNPDGMVALLDYREDGVTPYMIFFKDGLEMEKC", "values": [{"measurement": "cytotoxicity index relative to control transfectants", "setting": "U2OS cells [3]", "result": "significantly lower than the cytotoxicity index of control cells"}, {"measurement": "cytotoxicity index relative to control transfectants", "setting": "U2OS cells [3]; listed as FortilinΔ45-172", "result": "still capable of protecting cells, albeit modestly, from etoposide-induced cell death"}]}
{"molecule": "FortilinΔ23-172: mutant of Fortilin representing 23rd-172nd amino acids of Fortilin (protein) IADGLCLEVEGKMVSRTEGNIDDSLIGGNASAEGPEGEGTESTVITGVDIVMNHHLQETSFTKEAYKKYIKDYMKSIKGKLEEQRPERVKPFMTGAAEQIKHILANFKNYQFFIGENMNPDGMVALLDYREDGVTPYMIFFKDGLEMEKC", "values": [{"measurement": "suppression of p53 induced apoptosis (apoptotic index)", "setting": "H1299 cells; listed as Fortilin(23-172)", "result": "did not significantly prevent p53-mediated apoptosis; also recorded: did not significantly prevent p53 mediated apoptosis"}, {"measurement": "inhibition of p53 transactivation of Bax gene (luciferase normalized to β-galactosidase)", "setting": "[2]; listed as truncated Fortilin (23-172)", "result": "inhibited p53 transactivation of the Bax gene"}, {"measurement": "prevention of Bax mediated apoptosis (apoptotic index)", "setting": "U2OS cells [1]", "result": "failed to prevent cells from undergoing Bax mediated apoptosis"}, {"measurement": "cytotoxicity index relative to control transfectants", "setting": "U2OS cells [3]", "result": "could not prevent cells from undergoing etoposide-induced cell death and instead sensitized the cells to etoposide-induced cell death"}, {"measurement": "cytotoxicity index relative to control transfectants", "setting": "U2OS cells [3]; listed as fortilinΔ23-172", "result": "significantly higher than that of control cells"}]}
